Data from ChEMBL document CHEMBL4118122, “Identification and biological evaluation of thiazole-based inverse agonists of RORγt” (Bioorg Med Chem Lett, 2018).

How the values were obtained:
[1] = target: Tyrosine-protein kinase JAK3 (Homo sapiens) (UniProt P52333); test: Inhibition of recombinant GST-tagged human JAK3 catalytic domain (781 to 1124 residues) expressed in baculovirus expression system at 10 uM in presence of ATP relative to control
[2] = Displacement of [3H]batrachotoxinin from rat brain voltage gated sodium ion channel site 2 after 60 mins by scintillation counting analysis
[3] = target: Serine/threonine-protein kinase PAK 3 (Homo sapiens) (UniProt O75914); test: Inhibition of recombinant full length His-tagged human PAK3 expressed in baculovirus expression system at 10 uM in presence of ATP relative to control
Neuromedin-K receptor = Neuromedin-K receptor (Homo sapiens, UniProt P29371); test: Displacement of [3H]SR 142801 from human recombinant NK3 receptor after 120 mins by scintillation counting analysis
[4] = target: Vasoactive intestinal polypeptide receptor 1 (Homo sapiens) (UniProt P32241); test: Displacement of [125I]VIP from human recombinant VPAC1 receptor at 1 uM after 60 mins by scintillation counting analysis relative to control
D(1A) dopamine receptor = D(1A) dopamine receptor (Homo sapiens, UniProt P21728); test: Displacement of [3H]-SCH 23390 from human recombinant dopamine D1 receptor after 60 mins by scintillation counting analysis
[5] = target: Delta-type opioid receptor (Homo sapiens, UniProt P41143); test: Displacement of [3H]DADLE from human recombinant delta opioid receptor after 60 mins by scintillation counting analysis
[6] = target: Sodium-dependent serotonin transporter (Homo sapiens, UniProt P31645); test: Displacement of [3H]-imipramine from recombinant human 5-HT transporter at 1 uM after 60 mins by scintillation counting relative to control
[7] = target: Muscarinic acetylcholine receptor M1 (Homo sapiens, UniProt P11229); test: Displacement of […] from human recombinant M1 receptor after 60 mins by scintillation counting analysis
[8] = target: T1, 5-hydroxytryptamine receptor 7 (Homo sapiens, UniProt P34969); test: Displacement of [3H]LSD from human recombinant 5-HT7 receptor at 1 uM after 120 mins by scintillation counting analysis relative to control
[9] = target: Substance-K receptor (Homo sapiens) (UniProt P21452); test: Displacement of [125I]NKA from human recombinant NK2 receptor at 1 uM after 60 mins by scintillation counting analysis relative to control
[10] = system: Casein kinase II subunit alpha' (CSNK2A2); test: Inhibition of CK2alpha2 (unknown origin) at 10 uM in presence of ATP relative to control; details: Homo sapiens
[11] = target: T1, 5-hydroxytryptamine receptor 7; test: Displacement of [3H]LSD from human recombinant 5-HT7 receptor at 10 uM after 120 mins by scintillation counting analysis relative to control
[12] = target: 5-hydroxytryptamine receptor 1B (Rattus norvegicus) (UniProt P28564); test: Displacement of [125I]-CYP from rat brain 5-HT1B receptor at 1 uM after 120 mins by scintillation counting analysis relative to control
[13] = target: Calcium/calmodulin-dependent protein kinase type 1D (Homo sapiens) (UniProt Q8IU85); test: Inhibition of CaMK1delta (unknown origin) at 10 uM in presence of ATP relative to control
Rattus norvegicus = organism: Rattus norvegicus; test: Displacement of [125I]alpha-dendrotoxin from rat brain voltage-gated K channel at 10 uM after 60 mins by scintillation counting analysis relative to control
[14] = target: Muscarinic acetylcholine receptor M3 (Homo sapiens, UniProt P20309); test: Displacement of [3H]4-DAMP from human recombinant M3 receptor after 60 mins by scintillation counting analysis
[15] = target: Somatostatin receptor (Mus musculus) (UniProt P30935+O08858+P30875+P30873+P49660); test: Displacement of [125I]Tyr11-somatostatin-14 from mouse SST receptor at 1 uM after 60 mins by scintillation counting analysis relative to control; type: protein assay
[16] = target: T2, Nuclear receptor ROR-gamma (Homo sapiens, UniProt P51449); test: Inverse agonist activity at human GAL4 DBD-fused RORgammat LBD (237 to 497 residues) expressed in HEK293T cells assessed as reduction in ROR mediated transcriptional activity after 24 hrs by dual glo luciferase reporter gene assay; type: cell-based
T2 sequence (P51449 whole entry): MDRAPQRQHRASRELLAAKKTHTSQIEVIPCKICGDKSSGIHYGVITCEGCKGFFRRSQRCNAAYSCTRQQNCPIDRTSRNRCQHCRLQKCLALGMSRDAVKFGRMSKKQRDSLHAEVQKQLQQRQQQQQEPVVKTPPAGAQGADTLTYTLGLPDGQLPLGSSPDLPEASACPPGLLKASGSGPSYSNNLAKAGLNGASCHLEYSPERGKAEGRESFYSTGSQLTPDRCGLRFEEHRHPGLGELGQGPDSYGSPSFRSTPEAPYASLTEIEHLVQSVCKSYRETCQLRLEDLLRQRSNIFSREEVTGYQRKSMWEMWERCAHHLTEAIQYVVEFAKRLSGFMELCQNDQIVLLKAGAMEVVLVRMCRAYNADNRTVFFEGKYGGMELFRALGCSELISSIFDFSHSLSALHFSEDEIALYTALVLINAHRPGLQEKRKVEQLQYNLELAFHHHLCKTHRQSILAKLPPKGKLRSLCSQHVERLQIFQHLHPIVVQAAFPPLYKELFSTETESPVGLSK

[17] = target: C-C chemokine receptor type 1 (Homo sapiens, UniProt P32246); test: Displacement of [125I]MIP-1alpha from human recombinant CCR1 receptor after 120 mins by scintillation counting analysis
[18] = target: T3, Nuclear receptor ROR-beta (Homo sapiens, UniProt Q92753); test: Binding affinity to recombinant human RORbeta LBD (201 to 452 residues) expressed in Escherichia coli BL21 (DE3) GOLD by 1,8-ANS dye-based thermofluor assay
T3 sequence (Q92753 whole entry): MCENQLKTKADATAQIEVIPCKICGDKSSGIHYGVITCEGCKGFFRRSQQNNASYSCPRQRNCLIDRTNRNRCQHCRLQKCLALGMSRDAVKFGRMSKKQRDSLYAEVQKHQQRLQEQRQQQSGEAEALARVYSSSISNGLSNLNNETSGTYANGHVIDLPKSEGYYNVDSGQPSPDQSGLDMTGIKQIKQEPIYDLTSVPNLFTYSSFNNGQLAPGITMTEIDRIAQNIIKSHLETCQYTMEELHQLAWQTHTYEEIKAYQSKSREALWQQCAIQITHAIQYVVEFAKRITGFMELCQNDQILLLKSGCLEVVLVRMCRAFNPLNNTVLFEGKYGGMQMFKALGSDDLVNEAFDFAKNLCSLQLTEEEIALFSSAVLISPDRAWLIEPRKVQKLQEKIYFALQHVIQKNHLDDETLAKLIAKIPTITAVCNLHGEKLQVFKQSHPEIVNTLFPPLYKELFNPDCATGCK

[19] = AUC (0 to infinity) in Sprague-Dawley rat at 1 mg/kg, iv; type: ADME, organism-based; design: dose 1 mg/kg, time infinity, route intravenous; details: in vivo
[20] = target: Neuropeptide Y receptor type 1 (Homo sapiens, UniProt P25929); test: Displacement of [125I]peptide YY from human Y1 receptor after 120 mins by scintillation counting analysis
Neuropeptide Y receptor type 1, sequence (P25929 whole entry): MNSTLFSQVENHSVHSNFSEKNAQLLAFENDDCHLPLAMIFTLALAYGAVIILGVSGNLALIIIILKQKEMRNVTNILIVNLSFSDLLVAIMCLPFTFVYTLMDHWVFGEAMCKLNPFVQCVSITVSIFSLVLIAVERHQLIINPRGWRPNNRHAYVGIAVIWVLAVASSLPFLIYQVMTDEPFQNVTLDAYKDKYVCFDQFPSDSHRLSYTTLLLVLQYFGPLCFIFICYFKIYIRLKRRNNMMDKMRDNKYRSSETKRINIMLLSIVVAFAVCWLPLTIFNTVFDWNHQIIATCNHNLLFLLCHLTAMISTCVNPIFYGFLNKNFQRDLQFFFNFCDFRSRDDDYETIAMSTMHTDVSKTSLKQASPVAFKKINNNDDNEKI

T1 sequence (P34969 whole entry): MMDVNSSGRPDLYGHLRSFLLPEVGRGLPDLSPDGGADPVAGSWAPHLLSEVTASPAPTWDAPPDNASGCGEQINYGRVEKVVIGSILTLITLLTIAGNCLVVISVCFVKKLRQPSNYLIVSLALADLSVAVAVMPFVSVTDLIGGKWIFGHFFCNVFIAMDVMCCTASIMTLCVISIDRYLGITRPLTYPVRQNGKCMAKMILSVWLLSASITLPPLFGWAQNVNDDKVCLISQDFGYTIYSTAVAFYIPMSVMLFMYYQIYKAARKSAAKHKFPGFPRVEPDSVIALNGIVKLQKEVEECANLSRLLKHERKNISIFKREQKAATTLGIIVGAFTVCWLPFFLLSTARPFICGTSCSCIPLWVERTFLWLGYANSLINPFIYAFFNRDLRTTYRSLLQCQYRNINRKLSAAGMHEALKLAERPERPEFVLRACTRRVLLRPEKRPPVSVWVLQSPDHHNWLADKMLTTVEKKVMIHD
Muscarinic acetylcholine receptor M3, sequence (P20309 whole entry): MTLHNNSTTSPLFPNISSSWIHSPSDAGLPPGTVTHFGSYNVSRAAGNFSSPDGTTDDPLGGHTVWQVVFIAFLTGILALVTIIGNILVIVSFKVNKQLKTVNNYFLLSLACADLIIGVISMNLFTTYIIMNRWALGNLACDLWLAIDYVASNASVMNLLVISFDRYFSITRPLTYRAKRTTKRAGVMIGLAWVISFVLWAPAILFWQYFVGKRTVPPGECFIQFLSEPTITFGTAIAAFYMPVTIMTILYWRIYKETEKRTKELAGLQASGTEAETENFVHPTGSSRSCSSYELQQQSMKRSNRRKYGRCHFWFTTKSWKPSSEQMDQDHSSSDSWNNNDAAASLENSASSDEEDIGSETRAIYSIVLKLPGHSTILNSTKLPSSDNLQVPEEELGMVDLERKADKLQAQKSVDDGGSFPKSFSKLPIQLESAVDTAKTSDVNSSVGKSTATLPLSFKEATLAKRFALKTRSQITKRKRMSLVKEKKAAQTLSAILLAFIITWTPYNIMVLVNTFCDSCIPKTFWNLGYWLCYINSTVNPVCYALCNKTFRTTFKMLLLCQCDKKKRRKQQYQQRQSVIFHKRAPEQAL
C-C chemokine receptor type 1, sequence (P32246 whole entry, the tested form may be a part): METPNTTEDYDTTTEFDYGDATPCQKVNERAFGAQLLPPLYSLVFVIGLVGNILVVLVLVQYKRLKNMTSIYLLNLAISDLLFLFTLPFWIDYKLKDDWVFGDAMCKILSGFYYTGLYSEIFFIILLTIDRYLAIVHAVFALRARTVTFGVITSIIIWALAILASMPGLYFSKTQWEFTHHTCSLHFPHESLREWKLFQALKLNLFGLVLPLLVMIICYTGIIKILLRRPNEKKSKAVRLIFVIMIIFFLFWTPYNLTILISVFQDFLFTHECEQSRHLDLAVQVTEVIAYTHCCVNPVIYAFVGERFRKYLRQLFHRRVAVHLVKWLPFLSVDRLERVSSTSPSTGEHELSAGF
Calcium/calmodulin-dependent protein kinase type 1D (Homo sapiens), sequence (Q8IU85 whole entry, looked up): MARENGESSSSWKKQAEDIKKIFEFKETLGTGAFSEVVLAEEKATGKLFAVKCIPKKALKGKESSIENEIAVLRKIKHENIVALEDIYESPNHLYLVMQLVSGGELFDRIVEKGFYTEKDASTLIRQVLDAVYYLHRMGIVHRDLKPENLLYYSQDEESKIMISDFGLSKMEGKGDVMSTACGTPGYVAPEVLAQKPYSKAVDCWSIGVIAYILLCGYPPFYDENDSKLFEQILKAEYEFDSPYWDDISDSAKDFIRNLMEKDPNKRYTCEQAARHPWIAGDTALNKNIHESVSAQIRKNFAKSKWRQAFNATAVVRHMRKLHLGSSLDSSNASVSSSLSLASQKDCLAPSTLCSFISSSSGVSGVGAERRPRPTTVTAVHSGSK
D(1A) dopamine receptor, sequence (P21728 whole entry): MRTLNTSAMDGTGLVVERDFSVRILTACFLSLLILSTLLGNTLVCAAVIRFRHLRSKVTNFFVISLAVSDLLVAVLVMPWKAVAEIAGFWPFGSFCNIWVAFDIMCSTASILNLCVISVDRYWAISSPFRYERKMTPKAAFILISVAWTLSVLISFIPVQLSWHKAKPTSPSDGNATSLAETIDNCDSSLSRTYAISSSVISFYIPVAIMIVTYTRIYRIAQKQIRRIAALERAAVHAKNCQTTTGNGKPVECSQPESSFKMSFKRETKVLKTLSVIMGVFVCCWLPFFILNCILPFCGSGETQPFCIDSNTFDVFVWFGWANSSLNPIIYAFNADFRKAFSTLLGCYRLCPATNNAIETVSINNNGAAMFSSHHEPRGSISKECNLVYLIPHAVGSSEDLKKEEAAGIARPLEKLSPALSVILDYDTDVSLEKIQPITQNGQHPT
Vasoactive intestinal polypeptide receptor 1 (Homo sapiens), sequence (P32241 whole entry): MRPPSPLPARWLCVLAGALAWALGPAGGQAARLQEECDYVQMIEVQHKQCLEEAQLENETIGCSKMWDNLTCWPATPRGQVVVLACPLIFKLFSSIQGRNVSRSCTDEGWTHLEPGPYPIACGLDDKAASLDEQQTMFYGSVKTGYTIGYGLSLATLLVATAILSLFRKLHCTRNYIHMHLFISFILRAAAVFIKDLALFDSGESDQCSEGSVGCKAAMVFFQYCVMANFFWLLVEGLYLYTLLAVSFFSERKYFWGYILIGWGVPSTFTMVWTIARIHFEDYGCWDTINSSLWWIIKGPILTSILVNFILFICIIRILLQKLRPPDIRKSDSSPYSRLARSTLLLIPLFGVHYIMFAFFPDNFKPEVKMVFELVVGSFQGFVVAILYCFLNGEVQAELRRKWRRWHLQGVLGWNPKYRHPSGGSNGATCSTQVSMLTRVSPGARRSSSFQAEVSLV
Muscarinic acetylcholine receptor M1, sequence (P11229 whole entry): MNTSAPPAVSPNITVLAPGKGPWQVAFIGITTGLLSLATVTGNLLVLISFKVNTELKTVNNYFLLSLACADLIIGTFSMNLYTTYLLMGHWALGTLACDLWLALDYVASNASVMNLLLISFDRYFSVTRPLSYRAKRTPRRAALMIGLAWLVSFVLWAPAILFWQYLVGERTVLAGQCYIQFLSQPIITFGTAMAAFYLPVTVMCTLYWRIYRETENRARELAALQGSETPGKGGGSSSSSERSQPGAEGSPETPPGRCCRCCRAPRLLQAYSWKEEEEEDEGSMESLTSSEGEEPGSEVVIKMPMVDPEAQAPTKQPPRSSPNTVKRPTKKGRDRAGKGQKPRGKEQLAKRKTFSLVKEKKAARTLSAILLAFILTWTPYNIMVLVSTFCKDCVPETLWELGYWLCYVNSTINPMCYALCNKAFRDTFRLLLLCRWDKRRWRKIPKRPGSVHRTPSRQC
Serine/threonine-protein kinase PAK 3 (Homo sapiens), sequence (O75914 whole entry, looked up): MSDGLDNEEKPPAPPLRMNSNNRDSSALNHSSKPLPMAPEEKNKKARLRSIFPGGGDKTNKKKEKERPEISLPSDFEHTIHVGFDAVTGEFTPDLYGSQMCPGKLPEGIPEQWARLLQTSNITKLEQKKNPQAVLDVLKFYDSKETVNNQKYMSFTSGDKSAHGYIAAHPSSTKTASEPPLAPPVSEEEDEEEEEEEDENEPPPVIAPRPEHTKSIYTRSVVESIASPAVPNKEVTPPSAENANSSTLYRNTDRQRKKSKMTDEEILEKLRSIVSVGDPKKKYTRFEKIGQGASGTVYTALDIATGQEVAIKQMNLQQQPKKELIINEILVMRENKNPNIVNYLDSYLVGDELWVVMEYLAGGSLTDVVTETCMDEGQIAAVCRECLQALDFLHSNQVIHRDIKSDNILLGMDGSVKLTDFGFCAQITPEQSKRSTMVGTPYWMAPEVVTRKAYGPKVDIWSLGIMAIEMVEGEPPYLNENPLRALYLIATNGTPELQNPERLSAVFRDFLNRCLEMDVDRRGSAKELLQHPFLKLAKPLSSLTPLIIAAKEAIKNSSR
Delta-type opioid receptor, sequence (P41143 whole entry): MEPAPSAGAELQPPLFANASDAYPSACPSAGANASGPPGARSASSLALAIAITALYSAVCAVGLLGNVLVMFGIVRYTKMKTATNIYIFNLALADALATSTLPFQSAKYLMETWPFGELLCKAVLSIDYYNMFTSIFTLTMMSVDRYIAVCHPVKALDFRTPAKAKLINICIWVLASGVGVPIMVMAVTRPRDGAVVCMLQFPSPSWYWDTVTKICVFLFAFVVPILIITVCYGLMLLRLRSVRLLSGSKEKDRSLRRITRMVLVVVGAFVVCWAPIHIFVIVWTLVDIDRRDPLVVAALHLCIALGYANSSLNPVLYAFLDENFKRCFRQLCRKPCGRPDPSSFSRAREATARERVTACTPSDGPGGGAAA
5-hydroxytryptamine receptor 1B (Rattus norvegicus), sequence (P28564 whole entry): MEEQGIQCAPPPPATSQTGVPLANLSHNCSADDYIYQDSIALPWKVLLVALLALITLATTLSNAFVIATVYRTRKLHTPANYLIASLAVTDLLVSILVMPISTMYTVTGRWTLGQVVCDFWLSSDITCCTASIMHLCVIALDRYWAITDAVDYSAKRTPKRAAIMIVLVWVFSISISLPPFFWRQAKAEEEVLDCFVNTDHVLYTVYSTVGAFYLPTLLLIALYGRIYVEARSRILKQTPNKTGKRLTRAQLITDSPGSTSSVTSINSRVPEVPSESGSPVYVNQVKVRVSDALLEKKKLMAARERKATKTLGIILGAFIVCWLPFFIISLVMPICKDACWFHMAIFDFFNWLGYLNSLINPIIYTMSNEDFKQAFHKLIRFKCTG

Compound: CC(C)(C)NS(=O)(=O)c1ccc(-c2sc(C(=O)N[C@H]3C[C@H](C(=O)O)C3)nc2CC2CCCCC2)c2ccccc12
- inhibition [1]: -3%
- IC50 [2]: 6420 nM
- inhibition [3]: 5%
- IC50 (Neuromedin-K receptor): 8.2 nM
- inhibition [4]: < 10%
- IC50 (D(1A) dopamine receptor): 0.21 nM
- IC50 [5]: 6 nM
- inhibition [6]: < 10%
- IC50 [7]: 18 nM
- inhibition [8]: < 10%
- inhibition [9]: < 10%
- inhibition [10]: 2%
- inhibition [11]: 10%
- inhibition [12]: < 10%
- inhibition [13]: 11%
- inhibition (Rattus norvegicus): < 10%
- IC50 [14]: 0.73 nM
- inhibition [15]: < 10%
- IC50 [16]: 0.94 nM
- IC50 [17]: 0.081 nM
- Kd [18]: 740 nM
- AUC(0-inf) [19]: 0.325 µg·h/mL
- IC50 [20]: 0.13 nM
